Where two headings read alike, the source gives them in different places.
Experiments:
[1] = target: thermostable luciferase (Luc146-1H2) (Photuris pensylvanica, UniProt Q27757); format: biochemical, Photuris pennsylvanica
[2] = target: wild type luciferase from Photinus pyralis (QuantiLum recombinant luciferase) (Photinus pyralis, UniProt P08659); format: biochemical
[3] = No PPi, 1 mM AMP, 2 mM 5′AMPS, 2 mM ADP S, 5 mM dATP, ATP 0 to 1.67 mM
[4] = with 50 μM PPi, 1 mM AMP, 2 mM 5′AMPS, 2 mM ADP S, 5 mM dATP, ATP 0 to 1.67 mM
[5] = NT (no inhibitor), metal salt replacing MgSO4, MgSO4 reactions employed NaATP, read-out: ATP Km
[6] = with AMP + PPi, metal salt replacing MgSO4, MgSO4 reactions employed NaATP, read-out: ATP Km
[7] = with AMP, metal salt replacing MgSO4, MgSO4 reactions employed NaATP, read-out: ATP Km
[8] = with PPi, metal salt replacing MgSO4, MgSO4 reactions employed NaATP, read-out: ATP Km

Sequence of wild type luciferase from Photinus pyralis (QuantiLum recombinant luciferase) (P08659 whole entry): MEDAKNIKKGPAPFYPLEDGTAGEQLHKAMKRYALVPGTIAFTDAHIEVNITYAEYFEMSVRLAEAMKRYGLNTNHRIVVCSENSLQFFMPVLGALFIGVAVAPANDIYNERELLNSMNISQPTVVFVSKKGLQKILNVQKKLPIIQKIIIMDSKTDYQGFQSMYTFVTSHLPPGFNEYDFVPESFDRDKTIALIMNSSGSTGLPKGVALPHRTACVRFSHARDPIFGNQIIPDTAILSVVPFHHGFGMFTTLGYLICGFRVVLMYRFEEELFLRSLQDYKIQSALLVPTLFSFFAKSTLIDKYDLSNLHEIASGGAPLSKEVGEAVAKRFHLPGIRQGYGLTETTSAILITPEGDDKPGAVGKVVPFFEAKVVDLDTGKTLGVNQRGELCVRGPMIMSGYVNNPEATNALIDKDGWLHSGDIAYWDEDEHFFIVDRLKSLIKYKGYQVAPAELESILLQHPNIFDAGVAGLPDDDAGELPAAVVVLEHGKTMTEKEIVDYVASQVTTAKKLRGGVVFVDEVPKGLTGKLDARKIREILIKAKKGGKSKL
Sequence of thermostable luciferase (Luc146-1H2) (Q27757 whole entry): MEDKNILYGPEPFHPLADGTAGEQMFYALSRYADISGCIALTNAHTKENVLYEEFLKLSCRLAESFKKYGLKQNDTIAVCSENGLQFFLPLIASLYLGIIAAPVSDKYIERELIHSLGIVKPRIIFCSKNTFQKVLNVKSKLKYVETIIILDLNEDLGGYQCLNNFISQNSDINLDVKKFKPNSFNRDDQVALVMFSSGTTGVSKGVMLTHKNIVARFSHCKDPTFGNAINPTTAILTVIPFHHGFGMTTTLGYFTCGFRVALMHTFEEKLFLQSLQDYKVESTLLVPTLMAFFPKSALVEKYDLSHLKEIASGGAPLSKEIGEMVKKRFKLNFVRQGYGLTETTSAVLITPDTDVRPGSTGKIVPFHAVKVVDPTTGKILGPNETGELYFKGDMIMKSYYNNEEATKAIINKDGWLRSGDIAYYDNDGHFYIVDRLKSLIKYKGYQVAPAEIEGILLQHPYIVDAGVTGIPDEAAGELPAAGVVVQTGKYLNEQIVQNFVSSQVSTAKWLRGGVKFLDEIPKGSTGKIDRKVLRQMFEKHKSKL

Row | SMILES | increase of the luciferase Km for ATP [1] | type of inhibition of luciferase with respect to ATP [1] | Km [1, 3] | Km [1, 4] | Km [2, 5] | Km [2, 6] | Km [2, 7] | Km [2, 8] | further results
1 | Nc1ncnc2c1ncn2[C@@H]1O[C@H](COP(O)(O)=S)[C@@H](O)[C@H]1O [5′AMPS, adenosine 5′-O-thiomonophosphate] | ~10 fold | competitive inhibitors | 91 µM | 1070 µM | – | – | – | – | –
2 | Nc1ncnc2c1ncn2[C@@H]1O[C@H](COP(=O)(O)OP(O)(O)=S)[C@@H](O)[C@H]1O [ADP S, adenosine 5′-[β-thio] diphosphate] | ~10 fold | competitive inhibitors | 93 µM | 581 µM | – | – | – | – | –
3 | Nc1ncnc2c1ncn2[C@@H]1O[C@H](COP(=O)(O)O)[C@@H](O)[C@H]1O [AMP, adenosine monophosphate] | ~10 fold | competitive inhibitors | 109 µM | 1700 µM | – | – | – | – | decrease in Km ([2]; 3 mM AMP alone, compared to reactions with no PPi or AMP): 65%; Km ([1]; read-out: ATP Km, 1 mM AMP, ATP range 0-1.67 mM): 109 µM; Km ([1]; read-out: Km for ATP, ATP range 0 to 0.09 mM, AMP = 1 mM, PPi = 50 μM, hyperbolic curve fit): 232 µM; Km ([1]; read-out: Km for ATP, ATP range 0 to 0.3 mM, AMP = 1 mM, PPi = 50 μM, hyperbolic curve fit): 243 µM; Km ([1]; read-out: Km for ATP, ATP range 0 to 0.8 mM, AMP = 1 mM, PPi = 50 μM, hyperbolic curve fit): 203 µM; Km ([1]; read-out: Km for ATP, ATP range 0 to 2.5 mM, AMP = 1 mM, PPi = 50 μM, hyperbolic curve fit): 115 µM
4 | [Ca+2].[Cl-].[Cl-] [CaCl2] | – | – | – | – | 1910 µM | 1040 µM | 980 µM | 1450 µM | –
5 | [Cl-].[Cl-].[Mg+2] [MgCl2] | – | – | – | – | 115 µM | 213 µM | 56 µM | 276 µM | –
6 | O=S(=O)([O-])[O-].[Mg+2] [MgSO4] | – | – | – | – | 39 µM | 93 µM | 15 µM | 128 µM | –
7 | [Cl][Mn][Cl] [MnCl2] | – | – | – | – | 120 µM | 111 µM | 44 µM | 170 µM | –
8 | [Cl][Ni][Cl] [NiCl2] | – | – | – | – | 906 µM | 1540 µM | 1100 µM | 2420 µM | increase of the Km for ATP ([1]; non-Mg metal employed with PPi): about 10 fold
9 | O=P(O)(O)OP(=O)(O)O [PPi] | ≤ 2 fold | noncompetitive | – | – | – | – | – | – | Km ([2]; 0 mM AMP, 50 μM PPi, ATP 0 to 2.5 mM, MgATP, read-out: Km): 121 µM; Km ([2]; 0 mM AMP, 100 μM PPi, ATP 0 to 2.5 mM, MgATP, read-out: Km): 130 µM; Km ([2]; 0 mM AMP, 200 μM PPi, ATP 0 to 2.5 mM, MgATP, read-out: Km): 146 µM; increase in Km ([2]; 200 μM PPi alone, compared to reactions with no PPi or AMP): 28%; type of inhibition of luciferase with respect to ATP ([2]; native beetle luciferase, in the presence of certain divalent metals): competitive; Km ([1]; 50 μM PPi alone (NT row, no adenosine derivative), ATP 0 to 1.67 mM, read-out: Km): 4 µM; Km ([1]; ATP range 0 to 0.09 mM, AMP = 1 mM, PPi = 50 μM, hyperbolic curve fit, read-out: Km for ATP): 6 µM; Km ([1]; ATP range 0 to 0.3 mM, AMP = 1 mM, PPi = 50 μM, hyperbolic curve fit, read-out: Km for ATP): 6 µM; Km ([1]; ATP range 0 to 0.8 mM, AMP = 1 mM, PPi = 50 μM, hyperbolic curve fit, read-out: Km for ATP): 6 µM; Km ([1]; ATP range 0 to 2.5 mM, AMP = 1 mM, PPi = 50 μM, hyperbolic curve fit, read-out: Km for ATP): 5 µM
10 | [Cl-].[Cl-].[Sr+2] [SrCl2] | – | – | – | – | 373 µM | 2650 µM | 110 µM | 3290 µM | –
11 | [Cl-].[Cl-].[Zn+2] [ZnCl2] | – | – | – | – | 63 µM | 2390 µM | 585 µM | 109 µM | –
12 | Nc1ncnc2c1ncn2[C@H]1C[C@H](O)[C@@H](COP(=O)(O)OP(=O)(O)OP(=O)(O)O)O1 [dATP, deoxyadenosine triphosphate] | ~10 fold | competitive inhibitors | 127 µM | 232 µM | – | – | – | – | –
